Results: US11208412B2 (DAEGU-GYEONGBUK MEDICAL INNOVATION FOUNDATION, priority 2017, dated 2021)
Where two headings read alike, the source gives them in different places.

Assays:
Assay in all cases: Kinase selectivity, DiscoverX scanMAX Kinase assay panel (% control)
Type in all cases: binding
[1] = biological target: T1, kinases of the scanMAX Kinase assay panel (Homo sapiens, UniProt P10721, V559D); conditions: KIT(V559D); 1 uM
T1 construct: purchased DiscoverX Co. (contract measurement) scanMAX Kinase assay panel
T1 sequence (P10721 26-976 V559D): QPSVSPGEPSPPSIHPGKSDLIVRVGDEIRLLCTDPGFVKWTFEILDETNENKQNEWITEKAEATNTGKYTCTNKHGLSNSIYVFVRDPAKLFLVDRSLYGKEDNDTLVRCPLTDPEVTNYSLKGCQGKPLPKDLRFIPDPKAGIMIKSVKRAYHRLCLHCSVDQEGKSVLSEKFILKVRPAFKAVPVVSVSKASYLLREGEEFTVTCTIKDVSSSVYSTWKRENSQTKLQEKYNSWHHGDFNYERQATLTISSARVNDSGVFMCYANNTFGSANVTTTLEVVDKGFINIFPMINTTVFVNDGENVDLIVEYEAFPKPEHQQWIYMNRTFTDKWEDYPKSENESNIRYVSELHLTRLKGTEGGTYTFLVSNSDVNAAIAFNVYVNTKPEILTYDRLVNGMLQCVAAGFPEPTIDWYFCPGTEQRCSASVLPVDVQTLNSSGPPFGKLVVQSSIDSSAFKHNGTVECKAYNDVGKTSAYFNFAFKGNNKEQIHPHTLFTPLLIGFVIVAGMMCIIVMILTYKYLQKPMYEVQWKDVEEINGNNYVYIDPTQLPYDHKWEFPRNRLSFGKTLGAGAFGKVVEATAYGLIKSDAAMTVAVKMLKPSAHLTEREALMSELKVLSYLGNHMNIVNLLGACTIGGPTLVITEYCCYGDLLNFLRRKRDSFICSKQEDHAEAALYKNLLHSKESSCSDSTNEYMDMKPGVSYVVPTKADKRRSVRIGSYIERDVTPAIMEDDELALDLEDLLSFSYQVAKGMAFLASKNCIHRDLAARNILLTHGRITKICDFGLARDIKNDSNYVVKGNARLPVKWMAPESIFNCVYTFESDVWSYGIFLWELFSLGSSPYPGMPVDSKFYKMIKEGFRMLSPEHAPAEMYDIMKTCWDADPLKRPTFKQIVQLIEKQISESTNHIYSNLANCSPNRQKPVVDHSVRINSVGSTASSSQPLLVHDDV
Outline: (§1)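 Read-out is % control, normalised so a positive-control compound sits at 0% and DMSO at 100%: (test − positive)/(negative − positive)×100. Each kinase received the compound at 1 uM in DMSO. A value below 35% counts as activity.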

[2] = biological target: T2, kinases of the scanMAX Kinase assay panel (Homo sapiens, UniProt Q9UKI8); conditions: kinase TLK1; 1 uM in DMSO
T2 construct: purchased DiscoverX Co. (contract measurement) scanMAX Kinase assay panel
T2 sequence (Q9UKI8 1-766): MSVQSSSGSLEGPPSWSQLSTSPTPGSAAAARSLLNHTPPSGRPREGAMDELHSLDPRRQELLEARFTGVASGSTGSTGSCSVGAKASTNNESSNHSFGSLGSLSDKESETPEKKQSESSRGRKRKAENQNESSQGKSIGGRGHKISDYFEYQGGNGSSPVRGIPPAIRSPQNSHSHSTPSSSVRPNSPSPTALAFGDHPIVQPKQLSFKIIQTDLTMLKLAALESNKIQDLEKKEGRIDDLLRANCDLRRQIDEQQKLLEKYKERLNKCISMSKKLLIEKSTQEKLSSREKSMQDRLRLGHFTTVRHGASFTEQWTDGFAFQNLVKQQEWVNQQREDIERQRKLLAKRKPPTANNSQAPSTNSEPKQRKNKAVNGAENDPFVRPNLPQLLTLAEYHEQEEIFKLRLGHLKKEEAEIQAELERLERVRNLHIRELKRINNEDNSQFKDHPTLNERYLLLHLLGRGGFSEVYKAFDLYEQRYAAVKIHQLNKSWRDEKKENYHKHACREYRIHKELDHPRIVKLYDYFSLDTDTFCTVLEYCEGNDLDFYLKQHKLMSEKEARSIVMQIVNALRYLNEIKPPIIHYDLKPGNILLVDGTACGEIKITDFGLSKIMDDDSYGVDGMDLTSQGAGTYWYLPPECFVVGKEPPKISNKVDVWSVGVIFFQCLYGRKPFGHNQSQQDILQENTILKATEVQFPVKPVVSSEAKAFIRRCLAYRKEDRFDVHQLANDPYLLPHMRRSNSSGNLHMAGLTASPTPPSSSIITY
Outline: as §1

[3] = biological target: T3, kinases of the scanMAX Kinase assay panel (Homo sapiens, UniProt O75582); conditions: 1 uM in DMSO
T3 construct: purchased DiscoverX Co. (contract measurement) scanMAX Kinase assay panel
T3 sequence (O75582 whole entry): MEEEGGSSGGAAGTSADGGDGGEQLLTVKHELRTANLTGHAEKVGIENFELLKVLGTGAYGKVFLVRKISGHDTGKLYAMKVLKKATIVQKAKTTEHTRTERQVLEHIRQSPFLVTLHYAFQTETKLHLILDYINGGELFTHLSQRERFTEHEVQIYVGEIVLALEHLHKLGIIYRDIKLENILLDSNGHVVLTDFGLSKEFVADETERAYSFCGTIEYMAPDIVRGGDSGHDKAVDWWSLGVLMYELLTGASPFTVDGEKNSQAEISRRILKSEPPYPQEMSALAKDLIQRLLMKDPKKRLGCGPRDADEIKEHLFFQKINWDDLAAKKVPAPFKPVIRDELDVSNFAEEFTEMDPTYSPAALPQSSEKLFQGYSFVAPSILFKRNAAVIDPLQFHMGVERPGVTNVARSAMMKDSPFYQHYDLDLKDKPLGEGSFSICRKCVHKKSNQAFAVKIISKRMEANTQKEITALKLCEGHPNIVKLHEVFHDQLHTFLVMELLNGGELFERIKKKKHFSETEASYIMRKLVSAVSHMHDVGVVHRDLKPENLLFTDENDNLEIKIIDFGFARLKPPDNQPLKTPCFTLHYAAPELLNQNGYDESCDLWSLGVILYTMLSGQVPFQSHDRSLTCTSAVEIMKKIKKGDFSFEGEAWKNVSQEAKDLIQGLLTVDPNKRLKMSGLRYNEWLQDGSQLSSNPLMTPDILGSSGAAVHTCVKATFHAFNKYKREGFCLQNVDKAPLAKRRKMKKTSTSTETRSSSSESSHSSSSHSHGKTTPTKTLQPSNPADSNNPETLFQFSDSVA
Outline: as §1

[4] = biological target: T4, kinases of the scanMAX Kinase assay panel (Homo sapiens, UniProt O60285); conditions: ARK5; 1 uM
T4 construct: purchased DiscoverX Co. (contract measurement) scanMAX Kinase assay panel
T4 sequence (O60285 1-661): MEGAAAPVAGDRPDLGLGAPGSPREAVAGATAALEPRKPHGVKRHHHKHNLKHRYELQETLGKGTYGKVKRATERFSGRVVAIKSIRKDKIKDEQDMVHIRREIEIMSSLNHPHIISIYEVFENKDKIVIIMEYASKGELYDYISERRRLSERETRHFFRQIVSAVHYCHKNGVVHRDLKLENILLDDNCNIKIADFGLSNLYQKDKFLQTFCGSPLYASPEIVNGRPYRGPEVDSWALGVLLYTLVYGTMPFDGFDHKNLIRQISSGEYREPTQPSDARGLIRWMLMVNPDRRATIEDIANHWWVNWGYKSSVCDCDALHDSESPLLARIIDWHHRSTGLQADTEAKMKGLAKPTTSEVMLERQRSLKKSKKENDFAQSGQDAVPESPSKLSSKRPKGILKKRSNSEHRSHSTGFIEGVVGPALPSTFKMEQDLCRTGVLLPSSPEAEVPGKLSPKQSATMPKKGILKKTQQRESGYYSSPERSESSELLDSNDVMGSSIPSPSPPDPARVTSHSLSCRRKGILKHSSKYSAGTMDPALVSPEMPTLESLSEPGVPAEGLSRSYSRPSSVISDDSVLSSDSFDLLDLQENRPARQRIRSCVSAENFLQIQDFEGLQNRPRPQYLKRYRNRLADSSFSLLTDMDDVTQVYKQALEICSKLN
Outline: as §1

[5] = biological target: T5, kinases of the scanMAX Kinase assay panel (Homo sapiens, UniProt P49336); conditions: CDK8; 1 uM
T5 construct: purchased DiscoverX Co. (contract measurement) scanMAX Kinase assay panel
T5 sequence (P49336 whole entry): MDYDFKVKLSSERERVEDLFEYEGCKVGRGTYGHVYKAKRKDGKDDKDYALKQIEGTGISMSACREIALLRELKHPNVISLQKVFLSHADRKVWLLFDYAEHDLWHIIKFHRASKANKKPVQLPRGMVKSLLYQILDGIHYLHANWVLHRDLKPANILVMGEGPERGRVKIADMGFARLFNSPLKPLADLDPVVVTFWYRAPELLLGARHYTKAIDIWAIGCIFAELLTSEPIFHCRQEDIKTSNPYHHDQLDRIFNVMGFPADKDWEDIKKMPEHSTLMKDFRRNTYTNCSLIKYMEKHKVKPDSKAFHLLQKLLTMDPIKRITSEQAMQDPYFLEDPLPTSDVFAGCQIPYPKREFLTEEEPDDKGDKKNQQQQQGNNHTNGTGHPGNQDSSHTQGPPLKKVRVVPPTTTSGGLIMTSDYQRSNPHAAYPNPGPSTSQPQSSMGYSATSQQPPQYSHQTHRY
Outline: as §1

[6] = biological target: T6, kinases of the scanMAX Kinase assay panel (Homo sapiens, UniProt P50750); conditions: CDK9; 1 uM
T6 construct: purchased DiscoverX Co. (contract measurement) scanMAX Kinase assay panel
T6 sequence (P50750 whole entry): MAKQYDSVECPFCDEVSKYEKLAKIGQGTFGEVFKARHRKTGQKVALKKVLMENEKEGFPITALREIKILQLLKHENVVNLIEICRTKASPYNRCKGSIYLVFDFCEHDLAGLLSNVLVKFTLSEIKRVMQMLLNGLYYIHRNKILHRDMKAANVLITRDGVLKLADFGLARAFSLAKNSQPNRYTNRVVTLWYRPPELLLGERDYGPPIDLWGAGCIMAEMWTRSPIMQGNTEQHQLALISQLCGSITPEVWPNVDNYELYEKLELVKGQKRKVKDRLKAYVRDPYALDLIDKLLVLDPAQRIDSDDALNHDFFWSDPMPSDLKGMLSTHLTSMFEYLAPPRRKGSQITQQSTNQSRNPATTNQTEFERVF
Outline: as §1

[7] = biological target: T7, kinases of the scanMAX Kinase assay panel (Homo sapiens, UniProt Q9NWZ3); conditions: IRAK4; 1 uM
T7 construct: purchased DiscoverX Co. (contract measurement) scanMAX Kinase assay panel
T7 sequence (Q9NWZ3 1-460): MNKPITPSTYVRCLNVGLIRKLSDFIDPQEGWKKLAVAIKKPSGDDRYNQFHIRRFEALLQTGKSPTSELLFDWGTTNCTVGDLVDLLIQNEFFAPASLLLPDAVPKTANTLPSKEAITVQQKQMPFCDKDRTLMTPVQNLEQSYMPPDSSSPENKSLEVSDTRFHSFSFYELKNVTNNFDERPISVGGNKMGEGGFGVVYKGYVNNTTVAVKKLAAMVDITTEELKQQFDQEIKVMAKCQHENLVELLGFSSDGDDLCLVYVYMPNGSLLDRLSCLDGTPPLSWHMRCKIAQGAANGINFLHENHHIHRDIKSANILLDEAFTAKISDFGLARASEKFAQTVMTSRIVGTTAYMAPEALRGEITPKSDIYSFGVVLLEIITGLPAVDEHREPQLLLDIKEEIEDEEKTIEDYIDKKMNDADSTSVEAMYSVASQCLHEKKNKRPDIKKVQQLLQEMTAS
Outline: as §1

[8] = biological target: T8, kinases of the scanMAX Kinase assay panel (Homo sapiens, UniProt Q9UM73); conditions: ALK; 1 uM
T8 construct: purchased DiscoverX Co. (contract measurement) scanMAX Kinase assay panel
T8 sequence (Q9UM73 19-1620): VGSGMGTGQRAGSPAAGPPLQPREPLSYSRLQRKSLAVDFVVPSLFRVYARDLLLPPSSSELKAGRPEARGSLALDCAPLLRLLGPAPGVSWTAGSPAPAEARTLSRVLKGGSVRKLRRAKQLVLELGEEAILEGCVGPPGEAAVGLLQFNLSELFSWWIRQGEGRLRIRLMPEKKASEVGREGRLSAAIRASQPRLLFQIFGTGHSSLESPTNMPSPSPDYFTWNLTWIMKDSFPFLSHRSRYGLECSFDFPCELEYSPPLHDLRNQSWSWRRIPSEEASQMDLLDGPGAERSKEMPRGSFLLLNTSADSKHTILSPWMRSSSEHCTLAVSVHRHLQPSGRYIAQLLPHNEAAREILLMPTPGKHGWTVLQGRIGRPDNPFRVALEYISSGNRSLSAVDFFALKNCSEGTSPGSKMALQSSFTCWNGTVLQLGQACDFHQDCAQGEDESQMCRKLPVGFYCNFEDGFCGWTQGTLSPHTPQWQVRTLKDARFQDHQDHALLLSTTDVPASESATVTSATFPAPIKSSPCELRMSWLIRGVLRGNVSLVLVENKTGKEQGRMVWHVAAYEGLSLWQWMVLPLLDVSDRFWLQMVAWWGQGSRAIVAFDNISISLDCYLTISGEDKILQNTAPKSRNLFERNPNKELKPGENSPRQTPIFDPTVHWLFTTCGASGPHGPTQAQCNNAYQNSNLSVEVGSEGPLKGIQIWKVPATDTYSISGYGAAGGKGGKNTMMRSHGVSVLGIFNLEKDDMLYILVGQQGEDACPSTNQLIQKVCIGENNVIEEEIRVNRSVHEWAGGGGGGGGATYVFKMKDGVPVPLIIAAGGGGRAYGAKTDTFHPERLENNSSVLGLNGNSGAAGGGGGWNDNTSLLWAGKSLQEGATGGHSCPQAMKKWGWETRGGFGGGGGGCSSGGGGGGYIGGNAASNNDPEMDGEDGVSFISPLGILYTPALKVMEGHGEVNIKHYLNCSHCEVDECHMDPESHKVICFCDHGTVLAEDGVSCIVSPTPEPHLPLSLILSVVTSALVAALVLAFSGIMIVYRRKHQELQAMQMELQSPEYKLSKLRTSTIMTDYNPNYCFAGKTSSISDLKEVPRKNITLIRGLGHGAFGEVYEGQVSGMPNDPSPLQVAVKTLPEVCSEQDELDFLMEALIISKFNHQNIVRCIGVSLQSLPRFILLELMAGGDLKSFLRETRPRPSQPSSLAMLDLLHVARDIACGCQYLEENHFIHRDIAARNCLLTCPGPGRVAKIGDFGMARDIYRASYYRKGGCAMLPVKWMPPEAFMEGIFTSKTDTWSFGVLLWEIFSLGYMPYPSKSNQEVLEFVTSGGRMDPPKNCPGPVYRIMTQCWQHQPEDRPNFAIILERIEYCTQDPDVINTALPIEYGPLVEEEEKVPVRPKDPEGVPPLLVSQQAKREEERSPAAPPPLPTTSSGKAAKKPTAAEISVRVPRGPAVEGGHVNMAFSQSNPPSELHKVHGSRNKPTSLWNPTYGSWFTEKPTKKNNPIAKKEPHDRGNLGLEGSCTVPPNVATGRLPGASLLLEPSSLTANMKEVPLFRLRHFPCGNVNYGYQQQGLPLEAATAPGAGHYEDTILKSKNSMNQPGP
Outline: as §1

[9] = biological target: T9, kinases of the scanMAX Kinase assay panel (Homo sapiens, UniProt P27448); conditions: MARK3; 1 uM
T9 construct: purchased DiscoverX Co. (contract measurement) scanMAX Kinase assay panel
T9 sequence (P27448 whole entry): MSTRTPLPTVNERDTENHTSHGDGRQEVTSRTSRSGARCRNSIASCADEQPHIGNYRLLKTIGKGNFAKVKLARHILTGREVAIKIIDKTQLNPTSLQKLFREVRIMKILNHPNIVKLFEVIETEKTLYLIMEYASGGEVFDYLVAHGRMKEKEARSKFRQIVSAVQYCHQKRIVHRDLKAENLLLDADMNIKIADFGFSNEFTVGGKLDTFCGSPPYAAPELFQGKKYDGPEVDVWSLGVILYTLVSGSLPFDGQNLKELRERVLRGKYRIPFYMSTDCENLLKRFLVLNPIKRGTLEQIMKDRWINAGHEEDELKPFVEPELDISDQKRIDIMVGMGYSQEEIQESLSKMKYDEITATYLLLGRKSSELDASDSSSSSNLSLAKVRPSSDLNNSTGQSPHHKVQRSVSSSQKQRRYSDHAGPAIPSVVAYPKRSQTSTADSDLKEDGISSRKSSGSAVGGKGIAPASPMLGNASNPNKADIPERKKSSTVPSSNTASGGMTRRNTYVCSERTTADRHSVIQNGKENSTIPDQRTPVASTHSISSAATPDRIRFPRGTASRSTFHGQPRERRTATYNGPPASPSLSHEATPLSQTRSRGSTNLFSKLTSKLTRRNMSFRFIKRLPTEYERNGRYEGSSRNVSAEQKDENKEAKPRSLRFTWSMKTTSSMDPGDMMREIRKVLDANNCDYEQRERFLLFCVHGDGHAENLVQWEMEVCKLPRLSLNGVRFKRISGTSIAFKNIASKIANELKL
Outline: as §1

[10] = biological target: T10, kinases of the scanMAX Kinase assay panel (Homo sapiens, UniProt Q9C098); conditions: DCAMKL3; 1 uM
T10 construct: purchased DiscoverX Co. (contract measurement) scanMAX Kinase assay panel
Outline: as §1

[11] = kinase RPS6KA5(Kin.Dom.1-N-terminal), read-out: % control, RPS6KA5(Kin.Dom.1-N-terminal)
[12] = kinase RPS6KA5(Kin.Dom.2-C-terminal), read-out: % control, RPS6KA5(Kin.Dom.2-C-terminal)

| Structure (SMILES) | remaining binding at 1 µM [1] | remaining binding at 1 µM [2] | remaining binding at 1 µM [3, 11] | remaining binding at 1 µM [3, 12] | remaining binding at 1 µM [4] | remaining binding at 1 µM [5] | remaining binding at 1 µM [6] | remaining binding at 1 µM [7] | remaining binding at 1 µM [8] | remaining binding at 1 µM [9] | remaining binding at 1 µM [10] |
| --- | --- | --- | --- | --- | --- | --- | --- | --- | --- | --- | --- |
| CCNc1nc(Nc2ccc(C(=O)N3CCC(N4CCOCC4)CC3)cc2OC)nc2[nH]cc(C(F)(F)F)c12 [Example 104, (4-((4-(ethylamino)-5-(trifluoromethyl)-7H-pyrrolo[2,3-d]pyrimidine-2-yl)amino)-3-methoxyphenyl)(4-morpholinopiperidine-1-yl)methanone] | 46% | 72% | 100% | 83% | 99% | 86% | 100% | 100% | 0.35% | 86% | 90% |
| CC1(Nc2nc(Nc3cnn([C@H]4CCN(C5COC5)C[C@@H]4F)c3Cl)nc3[nH]cc(C#N)c23)CC1 [Example 52, 2-((5-chloro-1-((3S,4S)-3-fluoro-1-(oxetane-3-yl)piperidine-4-yl)-1H-pyrazole-4-yl)amino)((1-methylcyclopropyl)amino)-7H-pyrrolo[2,3-d]pyrimidine-5-carbonitrile] | 0% | 78% | 100% | 24% | 2.5% | 76% | 84% | 0.2% | 3% | 29% | 91% |
| CNc1nc(Nc2ccc(C(=O)N3CCOCC3)cc2OC)nc2[nH]cc(C#N)c12 [Example 1, 2-((2-methoxy-4-(morpholine-4-carbonyl)phenyl)amino)-4-(methylamino)-7H-pyrrolo[2,3-d]pyrimidine-5-carbonitrile] | 38% | 95% | 94% | 12% | 88% | 100% | 96% | 92% | 13% | 100% | 98% |
